Reference: patent publication EP2669288A1, “New monosaccharide derivatives and biological applications thereof” (L[…], priority 2012, dated 2013)
Where a name gives a salt, the structure may show the parent alone.

Assays:
GmhA of E. coli = GmhA of E. coli (Escherichia coli, UniProt P63224); experiment: Inhibition of the enzymatic activity of GmhA (luminescent assay); assay type: biochemical; details: 2nM GmhA, 3µM sedoheptulose-7-phosphate, 3µM ATP, 50nM HldE; 30min pre-incubation
Method: Inhibition of the enzymatic activity of GmhA (luminescent assay):
The assay buffer "AB" contained 50 mM Hepes pH7.5, 1 mM MnCl2, 25 mM KCl, 0.012% Triton-X100 and 1mm dithiothreitol (DTT) and 0.1µM Myelin basic protein (MBP). The following components were added in a white polystyrene Costar plate up to a final volume of 30µL: 10µL inhibitor dissolved in DMSO/water 50/50, and 20µL GmhA of E. coli in AB. After 30min of pre-incubation at room temperature, 30µL of Substrates mix in AB were added in each well to a final volume of 60µL. This reaction mixture was then composed of 2nM GmhA, 3µM sedoheptulose-7-phosphate (Sigma), 3µM ATP (Sigma) and 50nM HldE of E. coli in assay buffer. After 30min of incubation at room temperature, 100µL of the revelation mix were added to a final volume of 160µL, including the following constituents at the respective final concentrations: 10000 light units/ml luciferase (Sigma), 20µM D-luciferin (Sigma), 100µM N-acetylcysteamine (Aldrich). Luminescence intensity was immediately measured on Luminoskan (Thermofischer) and converted into inhibition percentages. For IC50 determinations, the inhibitor was tested at 6 to 10 different concentrations, and the related inhibitions were fitted to a classical langmuir equilibrium model using XLFIT (IDBS).

HldE of E. coli = HldE of E. coli (Escherichia coli, UniProt P76658); experiment: Inhibition of the enzymatic activity of HldE-K (luminescent assay on kinase activity); assay type: biochemical; details: 3nM HldE, 0.2µM β-heptose-7-phosphate, 0.2µM ATP; 30min pre-incubation
Sequence of HldE of E. coli (P76658 whole entry): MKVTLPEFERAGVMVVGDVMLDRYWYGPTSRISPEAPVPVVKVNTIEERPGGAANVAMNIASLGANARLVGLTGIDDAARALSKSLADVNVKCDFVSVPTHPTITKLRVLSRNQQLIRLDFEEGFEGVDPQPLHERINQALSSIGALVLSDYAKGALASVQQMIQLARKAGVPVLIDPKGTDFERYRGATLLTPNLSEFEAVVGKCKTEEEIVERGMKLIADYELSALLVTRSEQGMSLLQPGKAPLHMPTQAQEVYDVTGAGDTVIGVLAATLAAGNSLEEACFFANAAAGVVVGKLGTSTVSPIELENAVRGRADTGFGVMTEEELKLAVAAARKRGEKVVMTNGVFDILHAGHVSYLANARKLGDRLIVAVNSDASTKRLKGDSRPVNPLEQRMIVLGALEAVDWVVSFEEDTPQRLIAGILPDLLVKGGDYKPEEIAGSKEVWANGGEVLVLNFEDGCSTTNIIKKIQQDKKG
Method: Inhibition of the enzymatic activity of HldE-K (luminescent assay on kinase activity):
The assay buffer "AB" contained 50 mM Hepes pH7.5, 1 mM MnCl2, 25 mM KCl, 0.012% Triton-X100 and 1mm dithiothreitol (DTT) and 0.1µM Myelin basic protein (MBP). The following components were added in a white polystyrene Costar plate up to a final volume of 30µL: 10µL inhibitor dissolved in DMSO/water 50/50, and 20µL HldE of E. coli in AB. After 30min of pre-incubation at room temperature, 30µL of Substrates mix in AB were added in each well to a final volume of 60µL. This reaction mixture was then composed of 3nM HldE, 0.2µM β-heptose-7-phosphate (custom synthesis) and 0.2µM ATP (Sigma) in assay buffer. After 30min of incubation at room temperature, 200µL of the revelation mix were added to a final volume of 260µL, including the following constituents at the respective final concentrations: 5000 light units/ml luciferase (Sigma), 30µM D-luciferin (Sigma), 100µM N-acetylcysteamine (Aldrich). Luminescence intensity was immediately measured on Luminoskan (Thermofischer) and converted into inhibition percentages. For IC50 determinations, the inhibitor was tested at 6 to 10 different concentrations, and the related inhibitions were fitted to a classical Langmuir equilibrium model using XLFIT (IDBS).

[1] = system: E. coli C7 LPS heptosylation; experiment: Inhibition of E. coli C7 LPS biosynthesis (LPS gel electrophoresis, silver staining); assay type: cell-based, E. coli C7 (018:K1:H7)
Method: Inhibition of E. coli C7 (018:K1:H7) LPS biosynthesis:
The inner core contains several heptose residues. An inhibitor of the LPS heptosylation pathway should therefore reduce dramatically the size of LPS from full-length to the so-called 'Re-LPS' limited to lipid A branched with 2 Kdo residues.
Bacterial culture: The effect of heptosylation inhibitors on E. coli LPS was assessed as described below. The compounds to be tested were prepared in deionised water/DMSO (50/50) solutions and added (25µL) in sterile culture microtubes. The strain used in this study was E. coli C7 (018:K1:H7). The bacteria were isolated on tryptic soy agar (TSA) over-night. […]
LPS extraction: Bacterial cultures were normalized via OD determination, pelleted and washed with 1ml Phosphate-Buffer-Saline (PBS). […] The resulting supernatant, containing LPS was finally analysed by SDS-PAGE electrophoresis. […]
Silver staining: Gels were incubated overnight in 5% acetic acid/40% ethanol/deionised water, treated by 1% periodic acid/5% acetic acid for 15min, washed 4 times for 10min in deionised water and finally incubated for 18min in the dark in a silver nitrate solution composed of 56ml NaOH 0.1N, 4ml ammoniac 33%, 45ml AgN03 5% (Tsai and Frasch) and 195 ml deionised water. […] Gels were finally washed in deionised water, numerized with a Samsung PL51 camera and analysed by ImageJ software. […]

E. coli C7 (018:K1:H7) = experiment: Killing of the bacteria in culture with compound; assay type: cell-based; details: at 1 mM
Method: Bacterial culture: The effect of heptosylation inhibitors on E. coli LPS was assessed as described below. The compounds to be tested were prepared in deionised water/DMSO (50/50) solutions and added (25µL) in sterile culture microtubes. The strain used in this study was E. coli C7 (018:K1:H7). The bacteria were isolated on tryptic soy agar (TSA) over-night. Isolated colonies were cultured in 10ml of Luria-Bertani medium (LB) at 37°C up to an optical density of typically 0.15. These exponentially growing bacteria were finally diluted to 5e5 cfu/ml and added in each well (225µL) for incubation with the compounds at 37°C for approximately 5 hours, up to an optical density of ≈0.2-0.4. Some test compounds e.g. phospho-sugars required Glucose-6-Phosphate (G6P, from Sigma) to be added in the culture medium in order to activate their active transport into the bacterial cytosol via the phospho-sugar transporter UhpT. This was achieved by adding in the culture tube 2.5µL of a 10mM water solution of G6P (100µM final concentration).

Sequence of GmhA of E. coli (P63224 whole entry): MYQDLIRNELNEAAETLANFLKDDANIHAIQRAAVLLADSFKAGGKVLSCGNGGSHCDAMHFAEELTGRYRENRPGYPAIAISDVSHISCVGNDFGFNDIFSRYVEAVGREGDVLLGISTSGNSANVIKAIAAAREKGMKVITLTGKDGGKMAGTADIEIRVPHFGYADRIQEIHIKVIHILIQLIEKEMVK

Compound	IC50 (GmhA of E. coli) [µM]	IC50 (HldE of E. coli) [µM]	reducing LPS heptosylation ([1]; in absence of G6P)	inhibition of E. coli C7 LPS heptosylation ([1]; in the presence of 100 µM G6P, at concentrations < 1 mM)	killing of the bacteria (E. coli C7 (018:K1:H7))
7-O-phosphate-D-glycero-D-gluco-2-deoxy-2-amino-1-deoxy-heptopyranoside hydrochloride [Example 1]	< 100	< 100	–	–	–
N[C@H]1C(O)O[C@H]([C@H](O)COP(=O)(O)O)[C@@H](O)[C@@H]1O (stereo partly drawn) [Example 2, 7-O-phosphate-D-glycero-D-gluco-2-deoxy-2-amino-heptopyranoside hydrochloride]	< 100	< 100	inactive	at least 50%	did not kill the bacteria
